Experimental findings from patent US20260217660A1, “INHIBITORS OF ACTIVIN RECEPTOR TYPE I (ACVRI) AND ACTIVIN RECEPTOR LIKE TYPE I (ACVRLI), AND METHODS USING SAME” (Baylor College of Medicine, priority 2023, published 2026) are described below.

Numbering of substitutions follows the chain as printed.

The nature of data set [1]: Metabolic stability in mouse liver microsomes. The format is in vitro ADME. The settings on record: some cells add hours in brackets. An excerpt:
(§1) Exemplary compounds of the present disclosure have been evaluated for metabolic stability in mouse and human liver microsomes.
For orientation: Microsomes from liver hold many membrane-bound enzymes, among them those of drug oxidation.

Data set [2] has as its system pSMAD1/5 in FOP fibroblasts (FOP GM00513). The experiment in a line: BMP2-induced pSMAD1/5 Western blot in primary FOP fibroblasts. The settings on record: 1, 5, 25 μM, 30 min pre-treatment, 5 ng/mL BMP2 45 min. The format is cell-based, human. The protocol:
(§2) FIG. 11 depicts inhibition of phosphorylated SMAD1/5 (pSMAD1/5) in primary WT and FOP fibroblasts. […] Subsequently, the fibroblasts were treated with vehicle (i.e., DMSO) or 5 ng/mL BMP2 in the presence of the inhibitors for 45 minutes. Cell lysates were then probed with antibodies against pSMAD1/5, total SMAD5, total SMAD1, and GAPDH (i.e., loading control) using a Western blot.
Background: In western blotting, separated proteins are transferred to a membrane and probed.

Data set [3] concerns BMP2-induced luciferase activity in 293T-BRE-reporter cells. The experiment in a line: BMP2-induced luciferase reporter activity in 293T-BRE reporter cells. In kind it is cell-based. The settings on record: 0.2, 1, 5, 25 μM, 30 min pre-treatment, 5 ng/ml BMP2, 6 hours. The protocol:
BMP2-dependent luciferase reporter activation was quantified after 6 hours using the Promega BrightGLO luciferase system on a Tecan Infinity M1000 Pro plate reader.
FIG. 10 provides a bar graph depicting inhibition of BMP2-induced luciferase activity in 293T-BRE-reporter cells. Approximately 20,000 cells per well were plated in a 96-well plate and allowed to attach overnight. […] Cells were then stimulated with vehicle or 5 ng/ml BMP2 for 6 hours. Luciferase transactivation was assessed using the Promega BrightGLO luciferase system (Promega) and the signal was quantified using a plate reader (M1000 Pro).
(In a reporter assay the amount or activity of a reporter protein is the signal.)

The nature of data set [4]: Metabolic stability in human liver microsomes. Conditions: some cells add hours in brackets. In kind it is in vitro ADME.
From the text: as §1

For data set [5], the target named is T1, ACVR1^WT (Homo sapiens, UniProt Q04771).
T1 sequence (Q04771 21-509): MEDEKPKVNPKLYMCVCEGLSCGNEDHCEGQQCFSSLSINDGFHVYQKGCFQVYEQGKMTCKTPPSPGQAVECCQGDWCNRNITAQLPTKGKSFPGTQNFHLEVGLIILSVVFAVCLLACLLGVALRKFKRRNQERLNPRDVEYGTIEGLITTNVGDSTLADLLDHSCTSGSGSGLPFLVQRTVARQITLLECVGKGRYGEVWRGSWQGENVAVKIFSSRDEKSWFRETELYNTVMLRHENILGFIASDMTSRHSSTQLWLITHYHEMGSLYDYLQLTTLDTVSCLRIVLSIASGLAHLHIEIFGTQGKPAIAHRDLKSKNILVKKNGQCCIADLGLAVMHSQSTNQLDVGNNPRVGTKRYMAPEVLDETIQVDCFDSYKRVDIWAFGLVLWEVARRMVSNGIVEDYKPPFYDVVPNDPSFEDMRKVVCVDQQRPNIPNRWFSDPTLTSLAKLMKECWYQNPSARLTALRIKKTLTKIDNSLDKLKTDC
Nature of the data set: Promega NanoBRET live-cell target engagement, ACVR1. The format is cell-based. Conditions: in cellulo; NI = No inhibition at 40 μM. An excerpt: (§3) The Promega NanoBRET target engagement system involves cell-based competitive displacement of a fluorescent NanoBRET tracer bound reversibly to a NanoLuc fusion protein. Test compounds displace the tracer dependent on their affinity for the target and reduce […] the NanoBRET signal. […]

In data set [6] the test system is pSMAD1/5 in WT fibroblasts (WT GM01652). Nature of the data set: BMP2-induced pSMAD1/5 Western blot in primary WT fibroblasts. The format is cell-based, human. Conditions: 1, 5, 25 μM, 30 min pre-treatment, 5 ng/mL BMP2 45 min. The protocol:
as §2

For data set [7], the target named is T2, ACVR1^R206H (Homo sapiens, UniProt Q04771, R206H).
T2 sequence (Q04771 21-509 R206H): T1 sequence (Q04771 21-509) with R186H
The experiment in a line: Promega NanoBRET live-cell target engagement, ACVR1 (R206H). In kind it is cell-based. Conditions: in cellulo; NI = No inhibition at 40 μM.
From the text: as §3

For `COc1cc(-c2nc3ccc(C(=O)NCCCN4CCN(c5ccccc5)CC4)cc3n2C2CCC2)cc(OC)c1OC` [CDD-2315, 1-cyclobutyl-N-(3-(4-phenylpiperazin-1-yl)propyl)-2-(3,4,5-trimethoxyphenyl)-1H-benzo[d]imidazole-6-carboxamide], the “Metabolism MLM” value in data set [1] came to 6.3 min. Further, the “suppression of BMP2-induced pSMAD1/5 activation, FOP fibroblasts” value (“suppression … FOP fibroblasts” below) in data set [2] is “suppressed”. For the same compound, the “inhibition of BMP2-induced luciferase activity” value (shortened to “inhibition”) in data set [3] is given as “Potent inhibition”. Further, the “Metabolism HLM” value in data set [4] amounted to 7.8 min. Further, the concentration for half-maximal inhibition (IC50) (as a rule, the concentration at which inhibition is half-maximal) in data set [5] was determined as 0.56 µM; in data set [7], 2.6 µM. In addition, in data set [6], the “suppression of BMP2-induced pSMAD1/5 activation, WT fibroblasts” value (“suppression … WT fibroblasts” below) is “suppressed”.

As to `CNC(=O)[C@H]1C[C@H](n2c(-c3cc(F)cc(OC)c3)nc3ccc(C(=O)NCCCN4CCN(c5ccccc5)CC4)cc32)C1` [CDD-2340, 2-(3-fluoro-5-methoxyphenyl)-1-((1r,3r)-3-(methylcarbamoyl)cyclobutyl)-N-(3-(4-phenylpiperazin-1-yl)propyl)-1H-benzo[d]imidazole-6-carboxamide], the “Metabolism MLM” value in data set [1] was 7.1 min. In addition, the “suppression … FOP fibroblasts” value in data set [2] was “suppressed”. For the same compound, the “inhibition” value in data set [3] is on record as “Potent inhibition”. The “Metabolism HLM” value in data set [4] was 24.4 min. The IC50 in data set [5] stood at 5.3 µM; in data set [7], 9.2 µM. Further, the “suppression … WT fibroblasts” value in data set [6] is on record as “suppressed”.

For the compound `CNC(=O)[C@H]1C[C@H](n2c(-c3ccc(OC)c(OC)c3)nc3ccc(C(=O)NCCCN4CCN(c5cccc(C)c5C)CC4)cc32)C1` [CDD-2421, 2-(3,4-dimethoxyphenyl)-N-(3-(4-(2,3-dimethylphenyl)piperazin-1-yl)propyl)-1-((1r,3r)-3-(methylcarbamoyl)cyclobutyl)-1H-benzo[d]imidazole-6-carboxamide], the “Metabolism MLM” value in data set [1] came to 3.7 min. Further, the “Metabolism HLM” value in data set [4] was determined as 6 min. Further, the IC50 in data set [5] worked out at 1.24 µM; in data set [7], 2.4 µM.

On to `COc1cc(-c2nc3ccc(C(=O)NCCCN4CCN(c5ccccn5)CC4)cc3n2C2CCC2)cc(OC)c1OC` [CDD-2787, 1-cyclobutyl-N-(3-(4-(pyridin-2-yl)piperazin-1-yl)propyl)-2-(3,4,5-trimethoxyphenyl)-1H-benzo[d]imidazole-6-carboxamide], for which, in data set [1], the “Metabolism MLM” value amounted to 3.3 min. Besides, in data set [2], the “suppression … FOP fibroblasts” value is recorded as “suppressed”. Besides, in data set [3], the “inhibition” value is reported as “Potent inhibition”. For the same compound, the “Metabolism HLM” value in data set [4] was 9.8 min. Besides, the IC50 in data set [5] turned out to be 0.473 µM; in data set [7], 0.705 µM. The “suppression … WT fibroblasts” value in data set [6] is “suppressed”.

Take `COc1cc(F)cc(-c2nc3ccc(C(=O)NCCCN(C)C)cc3n2C2CCC2)c1` [CDD-2617, 1-cyclobutyl-N-(3-(dimethylamino)propyl)-2-(3-fluoro-5-methoxyphenyl)-1H-benzo[d]imidazole-6-carboxamide]: the “Metabolism MLM (Min)” value in data set [1] was 78.5 (1.3 h) Min. For the same compound, in data set [4], the “Metabolism HLM (Min)” value is 194 (3.2 h) Min. The concentration for half-maximal inhibition (IC50) in data set [5] came to 10.7 µM; in data set [7] it was 13.4 µM.

As to `CNC(=O)[C@H]1C[C@H](n2c(-c3cc(OC)c(OC)c(OC)c3)nc3ccc(C(=O)NCCCN(C)C)cc32)C1` [CDD-2281, N-(3-(dimethylamino)propyl)-1-((1r,3r)-3-(methylcarbamoyl)cyclobutyl)-2-(3,4,5-trimethoxyphenyl)-1H-benzo[d]imidazole-6-carboxamide], in data set [1], the “Metabolism MLM (Min)” value is reported as 807.1 (13.4 h) Min. The “Metabolism HLM (Min)” value in data set [4] was 769.1 (12.81 h) Min. Further, the IC50 in data set [5] and in data set [7] was above 40 µM in each case.

Take `CNC(=O)[C@H]1C[C@H](n2c(-c3cc(OC)c(OC)c(OC)c3)nc3ccc(C(=O)NCCCN4CCN(C)CC4)cc32)C1` [CDD-2280, 1-((1r,3r)-3-(methylcarbamoyl)cyclobutyl)-N-(3-(4-methylpiperazin-1-yl)propyl)-2-(3,4,5-trimethoxyphenyl)-1H-benzo[d]imidazole-6-carboxamide]: the “Metabolism MLM” value in data set [1] turned out to be 48 min. In addition, the “Metabolism HLM” value in data set [4] was 70.7 min. Moreover, the IC50 in data set [5] and in data set [7] was above 40 µM each time.

In the case of `CNC(=O)[C@H]1C[C@H](n2c(-c3cccc(OC)c3)nc3ccc(C(=O)NCCCN4CCN(c5ccccc5)CC4)cc32)C1` [CDD-2313, 2-(3-methoxyphenyl)-1-((1r,3r)-3-(methylcarbamoyl)cyclobutyl)-N-(3-(4-phenylpiperazin-1-yl)propyl)-1H-benzo[d]imidazole-6-carboxamide], the “Metabolism MLM” value in data set [1] is 8.6 min. The “Metabolism HLM” value in data set [4] amounted to 23 min. Further, the IC50 stood at 6.17 µM in data set [5] and 3.4 µM in data set [7].

For the compound `CNC(=O)[C@H]1C[C@H](n2c(-c3cc(OC)c(OC)c(OC)c3)nc3ccc(C(=O)NCC4CCN(C)CC4)cc32)C1` [CDD-2282, 1-((1r,3r)-3-(methylcarbamoyl)cyclobutyl)-N-((1-methylpiperidin-4-yl)methyl)-2-(3,4,5-trimethoxyphenyl)-1H-benzo[d]imidazole-6-carboxamide], the “Metabolism MLM (Min)” value in data set [1] is given as 220.4 (3.67 h) Min. In addition, in data set [4], the “Metabolism HLM (Min)” value was 978 (16.3 h) Min. Besides, the IC50 in data set [5] and in data set [7] was above 40 µM in each case.

As for `COc1cc(-c2nc3ccc(C(=O)NCCCN4CCN(C5CCCCC5)CC4)cc3n2C2CCC2)cc(OC)c1OC` [CDD-2792, 1-cyclobutyl-N-(3-(4-cyclohexylpiperazin-1-yl)propyl)-2-(3,4,5-trimethoxyphenyl)-1H-benzo[d]imidazole-6-carboxamide], the “Metabolism MLM” value in data set [1] was 10 min. The “Metabolism HLM” value in data set [4] is 38.3 min. In addition, the IC50 is 0.358 µM in data set [5] and 0.849 µM in data set [7].

`COc1cc(-c2nc3ccc(C(=O)NCCCN4CCN(c5ccccc5)C(=O)C4)cc3n2C2CCC2)cc(OC)c1OC` [CDD-2790, 1-cyclobutyl-N-(3-(3-oxo-4-phenylpiperazin-1-yl)propyl)-2-(3,4,5-trimethoxyphenyl)-1H-benzo[d]imidazole-6-carboxamide]: in data set [1], the “Metabolism MLM” value was found to be 6.1 min. For the same compound, the “Metabolism HLM” value in data set [4] was found to be 9.0 min. Also, the IC50 in data set [5] came out at 1.82 µM; in data set [7] it was 2.27 µM.
